Experimental data from ChEMBL document CHEMBL1201862, “PubChem BioAssay data set” (2004).
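Step 1: Grow cells in 96-well plates. Step 2: Expose to compound for 48 hours at 5 concentrations. Step 3: Interpolate endpoints linearly; if unreached, use highest concentration. GI50: concentration for 50% inhibition of growth.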 Activity calls are given as the source filed them. Rule as the data show it: active = GI50 up to about 1.1 µM and inactive = higher.

Tests used:
Experiment in all cases: NCI anticancer screen, dose series, 48 h
786-0 = test system: 786-0
CAKI-1 = test system: CAKI-1
CCRF-CEM = test system: CCRF-CEM
EKVX = test system: EKVX
HOP-92 = test system: HOP-92
LOX IMVI = test system: LOX IMVI
MDA-MB-435 = test system: MDA-MB-435
MOLT-4 = test system: MOLT-4
NCI-H226 = test system: NCI-H226
NCI-H23 = test system: NCI-H23
NCI-H522 = test system: NCI-H522
RXF 393 = test system: RXF 393
SF-295 = test system: SF-295
SF-539 = test system: SF-539
SK-MEL-28 = test system: SK-MEL-28
SN12C = test system: SN12C
TK-10 = test system: TK-10
UO-31 = test system: UO-31
SK-MEL-2 = test system: SK-MEL-2
OVCAR-3 = test system: OVCAR-3

Row | Compound | GI50 (786-0) | GI50 (CAKI-1) | GI50 (CCRF-CEM) | GI50 (EKVX) | GI50 (HOP-92) | GI50 (LOX IMVI) | GI50 (MDA-MB-435) | GI50 (MOLT-4) | GI50 (NCI-H226) | GI50 (NCI-H23) | GI50 (NCI-H522) | GI50 (RXF 393) | GI50 (SF-295) | GI50 (SF-539) | GI50 (SK-MEL-28) | GI50 (SN12C) | GI50 (TK-10) | GI50 (UO-31) | GI50 (SK-MEL-2) | GI50 (OVCAR-3)
1 | O=C(NCCCN(CCCCN(CCCNC(=O)C(F)(F)F)Cc1ccccc1)Cc1ccccc1)C(F)(F)F | 12.6 µM (inactive) | 13.6 µM (inactive) | 16.2 µM (inactive) | 12.6 µM (inactive) | 10.5 µM (inactive) | 8.43 µM (inactive) | 18.3 µM (inactive) | 14.7 µM (inactive) | 17.2 µM (inactive) | 15.5 µM (inactive) | 9.51 µM (inactive) | 14.8 µM (inactive) | 16.5 µM (inactive) | 13.5 µM (inactive) | 12.6 µM (inactive) | 15.4 µM (inactive) | 23.3 µM (inactive) | 4.63 µM (inactive) |  | 
2 | CCOC(=O)[C@@H]1CCN2CN(c3ccc(OC)cc3)N=C(c3ccccc3)[C@@]12c1ccccc1 | 18.6 µM (inactive) | 29.6 µM (inactive) | 23.7 µM (inactive) | 29.4 µM (inactive) | 12.6 µM (inactive) | 14.1 µM (inactive) | 26.5 µM (inactive) | 26.1 µM (inactive) | 14.7 µM (inactive) | 24.1 µM (inactive) | 17.5 µM (inactive) | 14.7 µM (inactive) | 25.8 µM (inactive) |  | 21.5 µM (inactive) | 16 µM (inactive) | 29.3 µM (inactive) | 17.8 µM (inactive) | 18.1 µM (inactive) | 
3 | COCc1cc2c(cc1/C=C/[N+](=O)[O-])OCO2 | 16.9 µM (inactive) | 19.6 µM (inactive) | 1.62 µM (inactive) | 17.8 µM (inactive) | 18.8 µM (inactive) | 27.5 µM (inactive) | 18.3 µM (inactive) | > 100 µM (inactive) | 19.8 µM (inactive) | 27.4 µM (inactive) | 19.2 µM (inactive) | 18 µM (inactive) | 21.6 µM (inactive) | 20.7 µM (inactive) | 11 µM (inactive) | 18.5 µM (inactive) | 16.9 µM (inactive) | 17 µM (inactive) |  | 19.4 µM (inactive)
4 | Nc1ccc(Oc2ccc(C34CC5CC6C3CC3CC4C(C5)C6(c4ccc(Oc5ccc(N)cc5)cc4)C3)cc2)cc1 | 13.4 µM (inactive) | 19 µM (inactive) | 15.4 µM (inactive) | 11.5 µM (inactive) | 2.9 µM (inactive) | 20 µM (inactive) | 0.376 µM (active) | 7.98 µM (inactive) | 22.8 µM (inactive) | 26.4 µM (inactive) | 12.8 µM (inactive) | 18.6 µM (inactive) | 23.8 µM (inactive) |  | 0.714 µM (active) | 25.1 µM (inactive) | 21.6 µM (inactive) | 8.36 µM (inactive) | 4.37 µM (inactive) | 6.5 µM (inactive)
5 | C=C1C2CCC3C4(C)CCCC(C)(C(=O)O)C4CCC3(C2)C1OC(=O)/C(C)=C/C (configuration not stated) | 60.7 µM (inactive) | 26.2 µM (inactive) | 53.2 µM (inactive) | 35.1 µM (inactive) | 25.6 µM (inactive) | 34.5 µM (inactive) | 34 µM (inactive) |  | 36 µM (inactive) | 36.8 µM (inactive) | 31.8 µM (inactive) | 15.9 µM (inactive) | 20.3 µM (inactive) | 27.5 µM (inactive) | 51.6 µM (inactive) | 23 µM (inactive) | 72.8 µM (inactive) | 21 µM (inactive) | 36.1 µM (inactive) | 19.8 µM (inactive)
6 | CC1(C)O[C@@H]([C@@H](O)[C@H](O)C2SCCCS2)[C@@H](CO)O1 | > 100 µM (inactive) | > 100 µM (inactive) | > 100 µM (inactive) | > 100 µM (inactive) | > 100 µM (inactive) | > 100 µM (inactive) | > 100 µM (inactive) | > 100 µM (inactive) | > 100 µM (inactive) | > 100 µM (inactive) | > 100 µM (inactive) | > 100 µM (inactive) | > 100 µM (inactive) |  | > 100 µM (inactive) | > 100 µM (inactive) | > 100 µM (inactive) | > 100 µM (inactive) | > 100 µM (inactive) | > 100 µM (inactive)
